Measurements: ChEMBL document CHEMBL3286359, “Synthesis and SAR of substituted pyrazolo[1,5-a]quinazolines as dual mGlu(2)/mGlu(3) NAMs” (Bioorg Med Chem Lett, 2014)
Calls of active or inactive are those of the source. No cut-off for these calls is given here.

Key:
[1] = molecular target: Metabotropic glutamate receptor 2 (Rattus norvegicus, UniProt P31421); assay: Inhibition of rat mGlu2 receptor transfected in HEK293 cells coexpressing mouse Galpha15 assessed as decrease in glutamate-induced calcium signaling by fluorescence plate reader analysis in presence of glutamate at EC76 concentration; type: functional, cell-based
Metabotropic glutamate receptor 2, sequence (P31421 whole entry): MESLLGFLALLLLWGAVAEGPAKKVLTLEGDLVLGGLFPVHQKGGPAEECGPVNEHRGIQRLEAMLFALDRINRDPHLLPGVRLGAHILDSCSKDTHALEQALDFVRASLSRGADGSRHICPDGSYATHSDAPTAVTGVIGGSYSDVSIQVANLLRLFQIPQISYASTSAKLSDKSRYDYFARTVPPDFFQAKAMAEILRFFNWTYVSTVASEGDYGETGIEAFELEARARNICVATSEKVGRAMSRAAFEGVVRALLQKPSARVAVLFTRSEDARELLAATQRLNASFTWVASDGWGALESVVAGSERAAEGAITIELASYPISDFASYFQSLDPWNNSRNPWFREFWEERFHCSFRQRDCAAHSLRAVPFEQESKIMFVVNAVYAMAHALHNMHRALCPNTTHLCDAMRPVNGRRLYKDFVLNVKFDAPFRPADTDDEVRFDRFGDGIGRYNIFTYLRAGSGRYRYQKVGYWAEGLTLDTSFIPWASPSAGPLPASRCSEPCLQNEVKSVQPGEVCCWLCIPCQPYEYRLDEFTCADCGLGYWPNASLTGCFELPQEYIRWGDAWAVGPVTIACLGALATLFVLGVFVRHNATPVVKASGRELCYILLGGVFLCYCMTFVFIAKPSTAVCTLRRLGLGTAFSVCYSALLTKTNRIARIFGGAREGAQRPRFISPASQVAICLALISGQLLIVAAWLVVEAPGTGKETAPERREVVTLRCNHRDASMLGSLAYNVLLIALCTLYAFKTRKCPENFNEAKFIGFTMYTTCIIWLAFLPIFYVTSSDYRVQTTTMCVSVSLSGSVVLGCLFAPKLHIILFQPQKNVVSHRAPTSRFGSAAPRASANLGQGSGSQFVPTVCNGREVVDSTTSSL

[2] = molecular target: Metabotropic glutamate receptor 3 (Rattus norvegicus, UniProt P31422); assay: Inhibition of rat mGlu3 receptor transfected in HEK293 cells coexpressing mouse Galpha15 assessed as decrease in glutamate-induced calcium signaling by fluorescence plate reader analysis in presence of glutamate at EC87 concentration; type: functional, cell-based
Metabotropic glutamate receptor 3, sequence (P31422 whole entry): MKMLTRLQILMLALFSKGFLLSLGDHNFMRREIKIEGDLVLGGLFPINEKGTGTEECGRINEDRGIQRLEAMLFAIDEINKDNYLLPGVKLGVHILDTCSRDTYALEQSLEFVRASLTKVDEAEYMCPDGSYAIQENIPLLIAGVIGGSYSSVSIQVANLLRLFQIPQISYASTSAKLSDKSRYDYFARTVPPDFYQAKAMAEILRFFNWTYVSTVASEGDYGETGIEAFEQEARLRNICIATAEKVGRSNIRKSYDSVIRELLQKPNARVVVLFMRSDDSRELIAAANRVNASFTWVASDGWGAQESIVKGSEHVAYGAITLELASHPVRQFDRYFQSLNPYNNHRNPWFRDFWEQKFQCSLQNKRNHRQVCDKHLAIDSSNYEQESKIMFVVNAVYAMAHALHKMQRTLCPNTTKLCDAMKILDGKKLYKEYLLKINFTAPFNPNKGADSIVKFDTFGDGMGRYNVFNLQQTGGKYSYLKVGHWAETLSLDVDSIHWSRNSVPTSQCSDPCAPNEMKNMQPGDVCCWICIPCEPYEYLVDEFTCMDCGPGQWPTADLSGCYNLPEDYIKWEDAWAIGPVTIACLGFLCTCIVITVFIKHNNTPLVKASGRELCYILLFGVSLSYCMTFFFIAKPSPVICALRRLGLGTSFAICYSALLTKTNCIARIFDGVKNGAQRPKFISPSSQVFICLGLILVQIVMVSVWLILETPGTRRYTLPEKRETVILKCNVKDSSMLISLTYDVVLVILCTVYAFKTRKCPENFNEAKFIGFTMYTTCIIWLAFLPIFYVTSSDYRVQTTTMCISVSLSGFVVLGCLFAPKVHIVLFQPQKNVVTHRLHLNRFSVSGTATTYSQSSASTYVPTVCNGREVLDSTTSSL

[3] = molecular target: Metabotropic glutamate receptor 2 (Rattus norvegicus) (UniProt P31421); assay: Negative allosteric modulatory activity at rat mGlu2 receptor transfected in HEK293 cells coexpressing mouse Galpha15 assessed as decrease in glutamate-induced calcium signaling by fluorescence plate reader analysis in presence of glutamate at EC76 concentration; type: functional, cell-based
Metabotropic glutamate receptor 2 (Rattus norvegicus), sequence (P31421 19-872 limits assumed): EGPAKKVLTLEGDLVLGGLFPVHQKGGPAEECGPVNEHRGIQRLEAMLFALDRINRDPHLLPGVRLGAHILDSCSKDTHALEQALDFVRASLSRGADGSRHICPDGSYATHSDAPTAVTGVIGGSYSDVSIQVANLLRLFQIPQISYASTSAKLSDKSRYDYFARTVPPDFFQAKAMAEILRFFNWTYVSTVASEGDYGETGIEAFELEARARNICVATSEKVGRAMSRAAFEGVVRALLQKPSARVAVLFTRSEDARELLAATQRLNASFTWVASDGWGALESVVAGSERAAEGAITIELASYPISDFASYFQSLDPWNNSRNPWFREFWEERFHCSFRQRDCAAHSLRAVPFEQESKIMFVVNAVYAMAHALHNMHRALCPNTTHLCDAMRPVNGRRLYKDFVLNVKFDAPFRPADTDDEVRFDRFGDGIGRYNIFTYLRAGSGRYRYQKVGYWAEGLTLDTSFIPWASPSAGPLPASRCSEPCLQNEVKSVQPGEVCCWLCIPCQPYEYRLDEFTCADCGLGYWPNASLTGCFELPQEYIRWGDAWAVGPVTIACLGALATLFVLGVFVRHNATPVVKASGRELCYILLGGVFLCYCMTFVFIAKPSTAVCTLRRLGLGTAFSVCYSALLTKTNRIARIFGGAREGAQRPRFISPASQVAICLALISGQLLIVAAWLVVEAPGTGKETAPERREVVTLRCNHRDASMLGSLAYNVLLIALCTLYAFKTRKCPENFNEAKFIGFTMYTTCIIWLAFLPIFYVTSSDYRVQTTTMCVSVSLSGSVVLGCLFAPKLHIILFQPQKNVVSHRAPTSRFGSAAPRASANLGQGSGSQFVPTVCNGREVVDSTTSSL

[4] = molecular target: Metabotropic glutamate receptor 2 (Rattus norvegicus) (UniProt P31421); assay: Inhibition of rat mGlu2 receptor assessed as decrease in glutamate-induced calcium signaling at 10 uM by fluorescence plate reader analysis; type: functional
[5] = molecular target: Metabotropic glutamate receptor 5 (Rattus norvegicus) (UniProt P31424); assay: Activity at rat mGlu5 receptor assessed as glutamate-induced calcium signaling at 10 uM by fluorescence plate reader analysis; type: functional
Metabotropic glutamate receptor 5 (Rattus norvegicus), sequence (P31424 21-1203 limits assumed): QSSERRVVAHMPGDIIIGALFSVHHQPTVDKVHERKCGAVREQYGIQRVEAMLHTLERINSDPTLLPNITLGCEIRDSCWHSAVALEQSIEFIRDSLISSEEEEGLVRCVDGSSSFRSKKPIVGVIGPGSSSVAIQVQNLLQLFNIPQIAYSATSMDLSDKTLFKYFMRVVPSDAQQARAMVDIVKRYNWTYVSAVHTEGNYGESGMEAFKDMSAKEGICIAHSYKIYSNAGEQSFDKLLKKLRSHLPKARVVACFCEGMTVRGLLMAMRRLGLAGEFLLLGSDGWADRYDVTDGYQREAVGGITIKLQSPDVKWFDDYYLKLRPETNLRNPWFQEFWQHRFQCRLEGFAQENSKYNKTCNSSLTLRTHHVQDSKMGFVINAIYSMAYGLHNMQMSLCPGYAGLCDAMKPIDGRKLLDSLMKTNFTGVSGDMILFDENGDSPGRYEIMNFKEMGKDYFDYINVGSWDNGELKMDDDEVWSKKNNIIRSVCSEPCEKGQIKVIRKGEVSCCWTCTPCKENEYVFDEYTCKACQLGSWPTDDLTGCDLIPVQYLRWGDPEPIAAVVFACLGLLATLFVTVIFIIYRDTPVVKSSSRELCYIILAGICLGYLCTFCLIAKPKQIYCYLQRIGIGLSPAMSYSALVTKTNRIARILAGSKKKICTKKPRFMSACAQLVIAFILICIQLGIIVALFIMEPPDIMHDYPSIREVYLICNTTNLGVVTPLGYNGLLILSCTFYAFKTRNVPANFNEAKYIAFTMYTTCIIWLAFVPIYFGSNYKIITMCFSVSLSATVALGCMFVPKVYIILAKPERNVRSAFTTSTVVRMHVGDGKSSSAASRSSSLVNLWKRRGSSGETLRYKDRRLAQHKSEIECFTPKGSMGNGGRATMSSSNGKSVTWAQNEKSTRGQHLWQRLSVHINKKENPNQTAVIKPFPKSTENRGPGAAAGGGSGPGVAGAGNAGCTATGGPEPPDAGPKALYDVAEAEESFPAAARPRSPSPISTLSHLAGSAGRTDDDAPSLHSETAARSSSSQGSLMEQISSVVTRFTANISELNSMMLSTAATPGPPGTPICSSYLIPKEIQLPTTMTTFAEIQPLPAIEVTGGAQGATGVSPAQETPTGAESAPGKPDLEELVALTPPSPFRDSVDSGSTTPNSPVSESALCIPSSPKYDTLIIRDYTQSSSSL

[6] = molecular target: Metabotropic glutamate receptor 4 (Rattus norvegicus) (UniProt P31423); assay: Activity at rat mGlu4 receptor assessed as glutamate-induced GIRK response at 10 uM
[7] = molecular target: Metabotropic glutamate receptor 6 (Homo sapiens) (UniProt O15303); assay: Activity at human mGlu6 receptor assessed as glutamate-induced GIRK response at 10 uM
[8] = molecular target: Metabotropic glutamate receptor 7 (Rattus norvegicus) (UniProt P35400); assay: Activity at rat mGlu7 receptor assessed as glutamate-induced GIRK response at 10 uM
Metabotropic glutamate receptor 7 (Rattus norvegicus), sequence (P35400 whole entry): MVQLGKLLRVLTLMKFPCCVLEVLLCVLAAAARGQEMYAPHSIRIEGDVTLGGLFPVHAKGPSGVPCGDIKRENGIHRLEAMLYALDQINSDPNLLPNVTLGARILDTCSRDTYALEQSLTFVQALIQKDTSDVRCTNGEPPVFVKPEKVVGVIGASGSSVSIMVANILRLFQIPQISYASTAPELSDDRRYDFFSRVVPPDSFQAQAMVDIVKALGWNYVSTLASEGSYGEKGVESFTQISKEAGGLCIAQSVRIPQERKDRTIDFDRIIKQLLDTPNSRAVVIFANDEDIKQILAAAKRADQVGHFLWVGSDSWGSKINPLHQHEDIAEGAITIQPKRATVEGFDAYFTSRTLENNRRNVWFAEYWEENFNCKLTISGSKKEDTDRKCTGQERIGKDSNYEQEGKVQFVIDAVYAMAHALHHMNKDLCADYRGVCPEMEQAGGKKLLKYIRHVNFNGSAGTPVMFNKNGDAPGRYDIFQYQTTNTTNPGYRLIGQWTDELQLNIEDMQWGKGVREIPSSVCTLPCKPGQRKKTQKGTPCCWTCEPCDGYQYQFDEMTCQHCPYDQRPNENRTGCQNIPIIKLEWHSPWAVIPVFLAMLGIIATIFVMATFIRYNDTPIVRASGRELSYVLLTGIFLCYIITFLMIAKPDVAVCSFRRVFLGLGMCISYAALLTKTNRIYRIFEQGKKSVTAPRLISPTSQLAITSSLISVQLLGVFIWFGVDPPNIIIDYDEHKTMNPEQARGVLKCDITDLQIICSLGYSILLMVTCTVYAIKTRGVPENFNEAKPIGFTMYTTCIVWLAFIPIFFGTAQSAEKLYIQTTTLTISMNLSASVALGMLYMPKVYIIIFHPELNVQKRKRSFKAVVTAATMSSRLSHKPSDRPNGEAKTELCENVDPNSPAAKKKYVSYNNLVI

[9] = molecular target: Metabotropic glutamate receptor 8 (Rattus norvegicus) (UniProt P70579); assay: Activity at rat mGlu8 receptor assessed as glutamate-induced GIRK response at 10 uM
[10] = tested on: Plasma; assay: Fraction unbound in human plasma; type: ADME, cell-free
[11] = tested on: Plasma; assay: Fraction unbound in rat plasma; type: ADME, cell-free
[12] = molecular target: Metabotropic glutamate receptor 3 (Rattus norvegicus) (UniProt P31422); conditions: 10 uM
Description: Inhibition of rat mGlu3 receptor assessed as decrease in glutamate-induced calcium signaling at 10 uM by fluorescence plate reader analysis

Cn1c(=O)c2ccc(-c3cncnc3)cc2n2nc(-c3ccccc3)cc12
IC50 [1]: 245 nM
IC50 [2]: 78 nM
Activity [3]: Dose-dependent effect
inhibition [4]: Active
Activity [5]: inactive
Activity [6]: inactive
Activity [7]: inactive
Activity [8]: inactive
Activity [9]: inactive
Fu [10]: 0.008
Fu [11]: 0.003
inhibition [12]: Active
